Results as given in PubChem BioAssay AID2060607 (Molecular Pharmacology Branch, DTP, NCI, 2025).
“And” between values parts separate entries of the source, which are not always exact repeats. Identical values can stand only once.

Tested on: 876862-298-R-J1-PDC complex spheroids, viability % test/control
Assay: Anticancer human tumor 876862-298-R-J1-PDC patient-derived endometrial carcinoma cell line growth inhibition [CLK]
Conditions: for viability, T/C: stronger effect = lower value; active = viability on the fitted dose curve at most 10% of control; inactive = the rest
Description: A high-throughput screen of multi-cell type tumor spheroids was designed to identify active combinations of […] and targeted small molecules. Complex spheroids include a stromal component modeled by human endothelial cells (HUVEC) and fibroblasts modeled by human mesenchymal stem cells (MSCs). The concentration ranges selected for each drug and investigational agent were based upon clinically achievable concentrations if the clinical Cmax of the agent was known.
Compounds. The drugs and investigational agents: cirtuvivint (SM08502; NSC835563), CC-671 (NSC850746), vemurafenib (NSC761431), tapotoclax (NSC804041), sotorasib (NSC818433), adagrasib (NSC831453), MRTX-1133 (NSC836407), BAY2416964 (NSC825713), copanlisib (NSC816437), inavolisib (NSC800729), abemaciclib (NSC768073), osimertinib (NSC779217), entinostat (NSC756642), eltanexor (KPT-8602, NSC794443), venetoclax (NSC766270), ceralasertib (NSC777638), bortezomib (NSC756655), olaparib (NSC753686), talazoparib (NSC767125), alisertib (NSC759677), peposertib (NSC802822), gemcitabine (NSC613327), 5-fluorouracil (NSC19893), SN-38 (NSC673596), oxaliplatin (NSC266046), paclitaxel (NSC125973), and doxorubicin (NSC123127), were obtained from the National Cancer Institute (NCI) Developmental Therapeutics Program Chemical Repository. The FDA-approved anticancer drug set is available from the Developmental Therapeutics Program at https://dtp.cancer.gov/organization/dscb/obtaining/available plates.htm. […] The stock solutions were prepared in dimethyl sulfoxide (DMSO, Sigma-Aldrich, St. Louis, MO, cat. D2650), except for the platinum complexes which were prepared in saline (Quality Biological, Gaithersburg, MD, cat. 114-055-101), at 800-fold the tested concentration and stored at -70 degrees C prior to their use. All drugs and investigational agents were tested over a range starting from a high concentration at or near the clinical Cmax and decreasing in half-log increments. If the clinical Cmax for an agent had not been determined, the highest concentration tested was 10 microM.
Cell Culture. All cells were maintained in an incubator at 37 degrees C and 5% CO2 with 95% humidity. The PDC lines were cultured according to standard operating procedures established by the NCI PDMR. Briefly, all PDCs were thawed and cultured in Matrigel-coated flasks prepared with a working solution of 1X Ham's F-12 nutrient mix, without supplementation (Invitrogen, Waltham, MA, cat. 11765054), 100 U/mL penicillin-streptomycin (Invitrogen, cat. 15140122), and 2.5% Matrigel (Corning Inc., Corning, NY, cat. 354248) for the first three passages. The 947758-054-R-J2-PDC line was cultured in 6B/Colon 1A media, which includes advanced DMEM/F-12 (Thermo Fisher Scientific, cat. 12634028), 10 mM HEPES (Thermo Fisher Scientific, cat. 15630080), 1X GlutaMAX supplement (Thermo Fisher Scientific, cat. 35050061), 0.1 mg/mL primocin (InvivoGen, cat. ant-pm-2), 10% defined fetal bovine serum, heat inactivated (HyClone Laboratories Inc., cat. SH30070.03HI), 1.25 mM N-Acetyl-L-cysteine (Sigma-Aldrich, cat. A9165), 10 mM nicotinamide (Sigma-Aldrich, cat. N0636), 1X B-27 supplement (Thermo Fisher Scientific, cat. 17504044), 1X N-2 supplement (Thermo Fisher Scientific, cat. 17502048), and 10 microM Y-27632 dihydrochloride (Tocris Bioscience, cat. 1254). The 876862-298-R-J1-PDC was cultured in 6E media, which includes all 6B/Colon 1A media components plus 50% L-WRN conditioned media (ATCC, cat. CRL-3276), 50 ng/mL recombinant human EGF recombinant protein (hEGF; Thermo Fisher Scientific, cat. PHG0311), 10 ng/mL recombinant human fibroblast growth factor 10 (hGFG-10; PeproTech, cat. 100-26), 1 ng/mL recombinant human fibroblast growth factor 2 (hFGF-2; PeproTech, cat. 100-18B), and 1 µM prostaglandin E2 (PGE2; Tocris, cat. 2296). The 227483-062-R1-J1-PDC line was cultured in Panc media, containing all 6E components except hFGF-2, with the addition of 500 nM SB-431542 (Selleckchem, cat. S1067) and 10 nM gastrin (Tocris, cat. 3006). […]

[1] = curve of first compound, second compound 0.0316 µM
[2] = curve of first compound, second compound 0.1 µM
[3] = curve of first compound, second compound 0.316 µM
[4] = curve of first compound, second compound 1 µM
[5] = curve of first compound, second compound 3.16 µM
[6] = curve of first compound, second compound 10 µM
[7] = second compound 0.0316 µM, first compound 0.0316 µM
[8] = second compound 0.0316 µM, first compound 0.1 µM
[9] = second compound 0.0316 µM, first compound 0.316 µM
[10] = second compound 0.0316 µM, first compound 1 µM
[11] = second compound 0.0316 µM, first compound 3.16 µM
[12] = second compound 0.0316 µM, first compound 10 µM
[13] = second compound 0.1 µM, first compound 0.0316 µM
[14] = second compound 0.1 µM, first compound 0.1 µM
[15] = second compound 0.1 µM, first compound 0.316 µM
[16] = second compound 0.1 µM, first compound 1 µM
[17] = second compound 0.1 µM, first compound 3.16 µM
[18] = second compound 0.1 µM, first compound 10 µM
[19] = second compound 0.316 µM, first compound 0.0316 µM
[20] = second compound 0.316 µM, first compound 0.1 µM
[21] = second compound 0.316 µM, first compound 0.316 µM
[22] = second compound 0.316 µM, first compound 1 µM
[23] = second compound 0.316 µM, first compound 3.16 µM
[24] = second compound 0.316 µM, first compound 10 µM
[25] = second compound 1 µM, first compound 0.0316 µM
[26] = second compound 1 µM, first compound 0.1 µM
[27] = second compound 1 µM, first compound 0.316 µM
[28] = second compound 1 µM, first compound 1 µM
[29] = second compound 1 µM, first compound 3.16 µM
[30] = second compound 1 µM, first compound 10 µM
[31] = second compound 3.16 µM, first compound 0.0316 µM
[32] = second compound 3.16 µM, first compound 0.1 µM
[33] = second compound 3.16 µM, first compound 0.316 µM
[34] = second compound 3.16 µM, first compound 1 µM
[35] = second compound 3.16 µM, first compound 3.16 µM
[36] = second compound 3.16 µM, first compound 10 µM
[37] = second compound 10 µM, first compound 0.0316 µM
[38] = second compound 10 µM, first compound 0.1 µM
[39] = second compound 10 µM, first compound 0.316 µM
[40] = second compound 10 µM, first compound 1 µM
[41] = second compound 10 µM, first compound 3.16 µM
[42] = second compound 10 µM, first compound 10 µM
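Note: spheroids exposed to drugs for 7 days before readout.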
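Throughout, for viability, T/C: 100% = DMSO vehicle control wells.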

CC(Nc1ccc2c(c1)OCCn1cc(N3C(=O)OCC3C(F)F)nc1-2)C(N)=O (stereo not given) + CN1CCN(c2cc(C(=O)Nc3cc4cc(-c5cnn(C)c5)ccc4cn3)ccn2)CC1
862 nM: IC50 [1]
active: viability, T/C [19] 3.15% | viability, T/C [20] 3.14% | viability, T/C [21] 3.55% | viability, T/C [22] 2.62% | viability, T/C [23] 2.92% | viability, T/C [24] 3.77% | viability, T/C [25] 0.54% | viability, T/C [26] 0.79% | viability, T/C [27] 1.03% | viability, T/C [28] 0.19% | viability, T/C [29] 0.18% | viability, T/C [30] 1.05% | viability, T/C [31] 0.69% | viability, T/C [32] 2.49% | viability, T/C [33] 1.55% | viability, T/C [34] 2.4% | viability, T/C [35] 2.04% | viability, T/C [36] 0.86% | viability, T/C [37] 1.76% | viability, T/C [38] 0.59% | viability, T/C [39] 1.6% | viability, T/C [40] 0.79% | viability, T/C [41] 0.45% | viability, T/C [42] 1.26%
< 31.6 nM: IC50 [2] | IC50 [3] | IC50 [4] | IC50 [5] | IC50 [6]
inactive: viability, T/C [7] 88.6% | viability, T/C [8] 79% | viability, T/C [9] 56.9% | viability, T/C [10] 50% | viability, T/C [11] 38.6% | viability, T/C [12] 28.6% | viability, T/C [13] 43% | viability, T/C [14] 41.3% | viability, T/C [15] 32.6% | viability, T/C [16] 25.1% | viability, T/C [17] 21.5% | viability, T/C [18] 15.5%

CNC(=O)c1ccc(Nc2nc(OC3CCCC3)c3c(-c4ccc5nc(C)oc5c4)c[nH]c3n2)c(OC)c1
inactive: viability, T/C (compound 0.0316 µM) 86% [middle of 12 runs] | viability, T/C (compound 0.1 µM) 49.5% [middle of 12 runs] | viability, T/C (compound 0.316 µM) 37.8% [middle of 12 runs] | viability, T/C (compound 1 µM) 28.6% [middle of 12 runs] | viability, T/C (compound 3.16 µM) 24.6% [middle of 12 runs] | viability, T/C (compound 10 µM) 23.1% [middle of 12 runs]
112 nM [middle of 11 runs]: IC50 (compound alone, run of 09/19/2023)

COc1cccc2c1C(=O)c1c(O)c3c(c(O)c1C2=O)CC(O)(C(=O)CO)CC3OC1CC(N)C(O)C(C)O1 (stereo not given) + CNC(=O)c1ccc(Nc2nc(OC3CCCC3)c3c(-c4ccc5nc(C)oc5c4)c[nH]c3n2)c(OC)c1
active: viability, T/C [9] 6.58% | viability, T/C [10] 5.25% | viability, T/C [11] 0.7% | viability, T/C [12] 4.06% | viability, T/C [15] 6.67% | viability, T/C [16] 4.08% | viability, T/C [17] 0.67% | viability, T/C [18] 3.82% | viability, T/C [20] 7.88% | viability, T/C [21] 5.6% | viability, T/C [22] 2.96% | viability, T/C [23] 0.81% | viability, T/C [24] 4.75% | viability, T/C [26] 5.96% | viability, T/C [27] 4.62% | viability, T/C [28] 2.24% | viability, T/C [29] 1.51% | viability, T/C [30] 5.96% | viability, T/C [32] 6.62% | viability, T/C [33] 3.35% | viability, T/C [34] 1.57% | viability, T/C [35] 1.6% | viability, T/C [36] 6.55% | viability, T/C [38] 5.47% | viability, T/C [39] 3.35% | viability, T/C [40] 1.56% | viability, T/C [41] 2.15% | viability, T/C [42] 7.11%
inactive: viability, T/C [7] 27.4% | viability, T/C [8] 11.2% | viability, T/C [13] 22.3% | viability, T/C [14] 10.5% | viability, T/C [19] 21.7% | viability, T/C [25] 15.3% | viability, T/C [31] 13% | viability, T/C [37] 12.1%
< 31.6 nM: IC50 [1] | IC50 [2] | IC50 [3] | IC50 [4] | IC50 [5] | IC50 [6]

CCc1c2c(nc3ccc(O)cc13)-c1cc3c(c(=O)n1C2)COC(=O)[C@]3(O)CC
inactive: viability, T/C (compound 0.00316 µM) 48% and 36.5%
active: viability, T/C (compound 0.01 µM) 9.1% and 7.37% | viability, T/C (compound 0.0316 µM) 6.83% and 6.05% | viability, T/C (compound 0.1 µM) 5.12% and 5.99% | viability, T/C (compound 0.316 µM) 3.64% and 4.64% | viability, T/C (compound 1 µM) 2.58% and 4.7%
< 3.16 nM: IC50 (curve of compound)

C#Cc1c(F)ccc2cc(O)cc(-c3ncc4c(N5CC6CCC(C5)N6)nc(OCC56CCCN5CC(F)C6)nc4c3F)c12 (stereo not given) + CNC(=O)c1ccc(Nc2nc(OC3CCCC3)c3c(-c4ccc5nc(C)oc5c4)c[nH]c3n2)c(OC)c1
> 10000 nM: IC50 [1]
< 31.6 nM: IC50 [2] | IC50 [3] | IC50 [4] | IC50 [5] | IC50 [6]
inactive: viability, T/C [7] 65.6% | viability, T/C [8] 88.8% | viability, T/C [9] 71.9% | viability, T/C [10] 75.3% | viability, T/C [11] 76.3% | viability, T/C [12] 71.4% | viability, T/C [13] 46.5% | viability, T/C [14] 52.8% | viability, T/C [15] 42.7% | viability, T/C [16] 46.6% | viability, T/C [17] 49.9% | viability, T/C [18] 38.2% | viability, T/C [19] 38% | viability, T/C [20] 40.4% | viability, T/C [21] 38.9% | viability, T/C [22] 41.7% | viability, T/C [23] 39.6% | viability, T/C [24] 34.4% | viability, T/C [25] 33.5% | viability, T/C [26] 34.9% | viability, T/C [27] 27.7% | viability, T/C [28] 30.5% | viability, T/C [29] 32.9% | viability, T/C [30] 26.2% | viability, T/C [31] 23.6% | viability, T/C [32] 22.1% | viability, T/C [33] 22.8% | viability, T/C [34] 21.7% | viability, T/C [35] 24.9% | viability, T/C [36] 20.2% | viability, T/C [37] 20.1% | viability, T/C [38] 20.4% | viability, T/C [39] 21.4% | viability, T/C [40] 21.6% | viability, T/C [41] 20.3% | viability, T/C [42] 19.4%
